Assay results from the supplement of paper PMC10307832.

Assays:
Experiment in all cases: relative viability (nuclei count vs DMSO), 5 days (fraction); higher = more cells survive
[1] = compound: O=C(O)C(Cc1ccccc1[N+](=O)[O-])=NNc1nc(-c2ccc(Cl)c(Cl)c2)cs1 (mixture of isomers) [4EGI-1] + COc1cc2c(Oc3ccc(NC(=O)C4(C(=O)Nc5ccc(F)cc5)CC4)cc3F)ccnc2cc1OCCCN1CCOCC1 [Foretinib] (partner 0.25 µM)
In short: (§1)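 Cells from lung cancer lines were seeded into 1536-well plates and, one day later, dosed by pin tool. Treatments were either a single drug or a fixed dose of an anchor drug with five library-drug doses (not always all listed) in √10 steps. After 5 days, nuclei were stained in a one-step fixation (final 0.05% Triton X-100, 1% formaldehyde, 1 ug/ml Hoechst) and counted on 4× images, and relative viability is the treated-to-vehicle nuclei ratio, as the median of duplicate plates.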

[2] = compound: CN1CCN(CC1)C2=CC(=C(C=C2)NC3=NC=C4C(=N3)N(C5=CC=CC=C5C(=O)N4C)C)OC [XMD8-85] + Cc1cc(Nc2cc(N3CCN(C)CC3)nc(Sc3ccc(NC(=O)C4CC4)cc3)n2)n[nH]1 [Tozasertib] (partner 0.1 µM)
In short: as §1

[3] = compound: O=C(O)C(Cc1ccccc1[N+](=O)[O-])=NNc1nc(-c2ccc(Cl)c(Cl)c2)cs1 (mixture of isomers) [4EGI-1] + C[C@]1(O)C[C@@H](c2nc(-c3ccc4ccc(-c5ccccc5)nc4c3)c3c(N)nccn32)C1 [Linsitinib] (partner 1 µM)
In short: as §1

[4] = compound: O=C(O)C(Cc1ccccc1[N+](=O)[O-])=NNc1nc(-c2ccc(Cl)c(Cl)c2)cs1 (mixture of isomers) [4EGI-1] + CC(C)C[C@H](NC(=O)[C@H](Cc1ccccc1)NC(=O)c1cnccn1)B(O)O [Bortezomib] (partner 0.002 µM)
In short: as §1

## NCI-H2023
[1]; first compound 0.5 µM
  relative viability: 0.88
[1]; first compound 5 µM
  relative viability: 0.772
[1]; first compound 15.81 µM
  relative viability: 0.45
[1]; first compound 50 µM
  relative viability: 0.149
[2]; first compound 0.08 µM
  relative viability: 0.266
[2]; first compound 0.253 µM
  relative viability: 0.355
[2]; first compound 0.8 µM
  relative viability: 0.432
[2]; first compound 2.53 µM
  relative viability: 0.335
[2]; first compound 8 µM
  relative viability: 0.163
[3]; first compound 0.5 µM
  relative viability: 0.75
[3]; first compound 5 µM
  relative viability: 0.562
[3]; first compound 15.81 µM
  relative viability: 0.388
[3]; first compound 50 µM
  relative viability: 0.135
[4]; first compound 0.5 µM
  relative viability: 1.53
[4]; first compound 5 µM
  relative viability: 1.23
[4]; first compound 15.81 µM
  relative viability: 0.309
[4]; first compound 50 µM
  relative viability: 0.101

## NCI-H1755
[1]; first compound 0.5 µM
  relative viability: 0.953
[1]; first compound 1.581 µM
  relative viability: 0.854
[1]; first compound 5 µM
  relative viability: 0.872
[1]; first compound 15.81 µM
  relative viability: 0.815
[1]; first compound 50 µM
  relative viability: 0.704
[2]; first compound 0.08 µM
  relative viability: 0.627
[2]; first compound 0.253 µM
  relative viability: 0.571
[2]; first compound 0.8 µM
  relative viability: 0.589
[2]; first compound 2.53 µM
  relative viability: 0.584
[2]; first compound 8 µM
  relative viability: 0.436
[3]; first compound 0.5 µM
  relative viability: 0.966
[3]; first compound 1.581 µM
  relative viability: 0.99
[3]; first compound 5 µM
  relative viability: 0.958
[3]; first compound 15.81 µM
  relative viability: 0.932
[3]; first compound 50 µM
  relative viability: 0.572
[4]; first compound 0.5 µM
  relative viability: 1.06
[4]; first compound 1.581 µM
  relative viability: 0.94
[4]; first compound 5 µM
  relative viability: 0.918
[4]; first compound 15.81 µM
  relative viability: 0.802
[4]; first compound 50 µM
  relative viability: 0.441

## NCI-H2405
[1]; first compound 0.5 µM
  relative viability: 1.06
[1]; first compound 1.581 µM
  relative viability: 1
[1]; first compound 5 µM
  relative viability: 1.13
[1]; first compound 15.81 µM
  relative viability: 1.13
[1]; first compound 50 µM
  relative viability: 1.02
[2]; first compound 0.08 µM
  relative viability: 0.705
[2]; first compound 0.253 µM
  relative viability: 0.749
[2]; first compound 0.8 µM
  relative viability: 0.742
[2]; first compound 2.53 µM
  relative viability: 0.694
[2]; first compound 8 µM
  relative viability: 0.485
[3]; first compound 0.5 µM
  relative viability: 1.14
[3]; first compound 1.581 µM
  relative viability: 0.889
[3]; first compound 5 µM
  relative viability: 1.02
[3]; first compound 15.81 µM
  relative viability: 1.02
[3]; first compound 50 µM
  relative viability: 0.536
[4]; first compound 0.5 µM
  relative viability: 0.972
[4]; first compound 1.581 µM
  relative viability: 0.858
[4]; first compound 5 µM
  relative viability: 0.949
[4]; first compound 15.81 µM
  relative viability: 0.992
[4]; first compound 50 µM
  relative viability: 0.79

## SK-LU-1
[1]; first compound 0.5 µM
  relative viability: 0.956
[1]; first compound 1.581 µM
  relative viability: 0.829
[1]; first compound 5 µM
  relative viability: 0.841
[1]; first compound 15.81 µM
  relative viability: 0.746
[1]; first compound 50 µM
  relative viability: 0.284
[2]; first compound 0.08 µM
  relative viability: 0.278
[2]; first compound 0.253 µM
  relative viability: 0.328
[2]; first compound 0.8 µM
  relative viability: 0.276
[2]; first compound 2.53 µM
  relative viability: 0.294
[2]; first compound 8 µM
  relative viability: 0.185
[3]; first compound 0.5 µM
  relative viability: 1.31
[3]; first compound 1.581 µM
  relative viability: 1.35
[3]; first compound 5 µM
  relative viability: 1.46
[3]; first compound 15.81 µM
  relative viability: 1.14
[3]; first compound 50 µM
  relative viability: 0.283
[4]; first compound 0.5 µM
  relative viability: 1.18
[4]; first compound 5 µM
  relative viability: 1.36
[4]; first compound 15.81 µM
  relative viability: 1.53
[4]; first compound 50 µM
  relative viability: 0.913

## PC-14
[1]; first compound 0.5 µM
  relative viability: 1.01
[1]; first compound 1.581 µM
  relative viability: 0.799
[1]; first compound 5 µM
  relative viability: 1.09
[1]; first compound 50 µM
  relative viability: 0.879
[2]; first compound 0.08 µM
  relative viability: 0.556
[2]; first compound 0.253 µM
  relative viability: 0.529
[2]; first compound 0.8 µM
  relative viability: 0.541
[2]; first compound 2.53 µM
  relative viability: 0.463
[2]; first compound 8 µM
  relative viability: 0.397
[3]; first compound 0.5 µM
  relative viability: 1.01
[3]; first compound 1.581 µM
  relative viability: 0.741
[3]; first compound 5 µM
  relative viability: 0.983
[3]; first compound 50 µM
  relative viability: 0.94
[4]; first compound 0.5 µM
  relative viability: 1.06
[4]; first compound 5 µM
  relative viability: 0.839
[4]; first compound 50 µM
  relative viability: 0.859

## LCLC-103H
[1]; first compound 0.5 µM
  relative viability: 0.791
[1]; first compound 1.581 µM
  relative viability: 0.675
[1]; first compound 5 µM
  relative viability: 0.764
[1]; first compound 15.81 µM
  relative viability: 0.733
[1]; first compound 50 µM
  relative viability: 0.367
[2]; first compound 0.08 µM
  relative viability: 0.451
[2]; first compound 0.253 µM
  relative viability: 0.449
[2]; first compound 0.8 µM
  relative viability: 0.581
[2]; first compound 2.53 µM
  relative viability: 0.45
[2]; first compound 8 µM
  relative viability: 0.383
[3]; first compound 0.5 µM
  relative viability: 1.09
[3]; first compound 1.581 µM
  relative viability: 0.994
[3]; first compound 5 µM
  relative viability: 0.955
[3]; first compound 15.81 µM
  relative viability: 1.03
[3]; first compound 50 µM
  relative viability: 0.887
[4]; first compound 0.5 µM
  relative viability: 1.03
[4]; first compound 1.581 µM
  relative viability: 0.964
[4]; first compound 5 µM
  relative viability: 0.98
[4]; first compound 15.81 µM
  relative viability: 0.955
[4]; first compound 50 µM
  relative viability: 0.959

## NCI-H2009
[1]; first compound 0.5 µM
  relative viability: 1.28
[1]; first compound 1.581 µM
  relative viability: 1.29
[1]; first compound 5 µM
  relative viability: 1.27
[1]; first compound 15.81 µM
  relative viability: 1.23
[1]; first compound 50 µM
  relative viability: 0.981
[2]; first compound 0.08 µM
  relative viability: 0.727
[2]; first compound 0.253 µM
  relative viability: 0.696
[2]; first compound 0.8 µM
  relative viability: 0.703
[2]; first compound 2.53 µM
  relative viability: 0.416
[2]; first compound 8 µM
  relative viability: 0.308
[3]; first compound 0.5 µM
  relative viability: 1.33
[3]; first compound 1.581 µM
  relative viability: 1.23
[3]; first compound 5 µM
  relative viability: 1.29
[3]; first compound 15.81 µM
  relative viability: 1.07
[3]; first compound 50 µM
  relative viability: 0.885
[4]; first compound 0.5 µM
  relative viability: 1.2
[4]; first compound 1.581 µM
  relative viability: 0.954
[4]; first compound 5 µM
  relative viability: 1.19
[4]; first compound 15.81 µM
  relative viability: 0.944
[4]; first compound 50 µM
  relative viability: 0.186

## NCI-H596
[1]; first compound 0.5 µM
  relative viability: 0.856
[1]; first compound 1.581 µM
  relative viability: 0.644
[1]; first compound 5 µM
  relative viability: 0.796
[1]; first compound 15.81 µM
  relative viability: 0.757
[1]; first compound 50 µM
  relative viability: 0.75
[2]; first compound 0.08 µM
  relative viability: 0.75
[2]; first compound 0.253 µM
  relative viability: 0.834
[2]; first compound 0.8 µM
  relative viability: 0.975
[2]; first compound 2.53 µM
  relative viability: 0.728
[2]; first compound 8 µM
  relative viability: 0.488
[3]; first compound 0.5 µM
  relative viability: 1.06
[3]; first compound 1.581 µM
  relative viability: 0.818
[3]; first compound 5 µM
  relative viability: 1.09
[3]; first compound 15.81 µM
  relative viability: 1.02
[3]; first compound 50 µM
  relative viability: 0.815
[4]; first compound 0.5 µM
  relative viability: 1
[4]; first compound 1.581 µM
  relative viability: 0.932
[4]; first compound 5 µM
  relative viability: 1.05
[4]; first compound 15.81 µM
  relative viability: 0.986
[4]; first compound 50 µM
  relative viability: 0.789
